From US8445510B2, “Fused bicyclic kinase inhibitors” (OSI Pharmaceuticals, LLC, priority 2011, dated 2013) come the findings set out here.

Holding throughout (type): cell-based
One experiment deals with MKN45 cells. Description: MKN45 cell proliferation assay (CellTiter-Glo). The settings on record: Homo sapiens, MKN-45, 72 h; MKN45 cell line; 3 days incubation; at least duplicate experiments; read-out: Prolif. IC50. On the procedure:
The effect of inhibitors on the proliferation of MKN45 cells was determined using the following protocol. MKN45 cells were plated in Corning 3917 96-well white tissue culture treated plates in growth medium (RPMI, 10% FCS) at a density of 5000 cells/well in a total volume of 135 μL and incubated at 37° C., 5% CO2, 95% humidity overnight. The following day, one-tenth volume of a 10× concentration of compounds was added to the wells in an 8-point dilution series. The dilution series was composed of an initial 1:5 dilution of a 10 mM stock of compound in DMSO, followed by serial 1:4 dilutions in DMSO, then a 1:20 dilution in growth medium prior to the 1:10 dilution into the cell plate. […] The typical dilution range is 10 μM to 0.6 nM. Once the compound was added to the cells, plates were incubated for 3 days at 37° C., 5% CO2 at 95% humidity. On the third day, after allowing all cells and reagents to come to room temperature, 25 μL of CellTiter-Glo reagent (Promega #G7573) was added to the wells. Plates were shaken on a platform for 10 minutes prior to reading luminescence for 0.1 seconds. The signal of the control wells was taken as 100% growth and growth inhibition was expressed as percent of control. IC50 values were determined from the percent of control data using a standard four-parameter model.
The IC50 values of exemplary compounds of the present invention determined in a cell proliferation assay using the MKN45 cell line according to the procedures described herein in at least duplicate experiments are abbreviated as follows and are shown in Table 2: A, IC50≦0.05 μM; B, 0.05 μM<IC50≦0.2 μM; C, 0.2 μM<IC50≦1 μM; D, IC50>1 μM; ND, not determined. The Example # of Table 2 corresponds to the compound example number as illustrated in the Examples section.
Treatment of this cell line with a selective c-MET inhibitor led to induction of apoptosis and inhibition of proliferation, whereas non-MET-amplified cell lines were not affected [Smolen et al., Proc. Natl. Acad. Sci. USA, 103(7):2316-2321 (2006)]. This cell line is thus “driven” by c-MET, and antiproliferative effects correlate very well with the inhibition of c-MET phosphorylation so that the cell proliferation IC50, values can be used as surrogate for the c-MET cell mechanistic IC50, values. Under the assay conditions described herein, the IC50 values correlate nearly 1:1.

The test system of the next experiment is Karpas-299 cells. Description: Karpas-299 cell proliferation assay (CellTiter-Glo). The settings on record: Homo sapiens, 72 h; Karpas-299 cell line (NPM-ALK); 3 days incubation; at least duplicate experiments; read-out: Prolif. IC50. On the procedure:
The effect of inhibitors on the proliferation of Karpas-299 cells (DSMZ no. ACC 31) was determined using the following protocol. Karpas-299 cells were plated in 96-well white tissue culture treated plates (Corning 3917) in growth medium (RPMI, 10% FCS) at a density of 5000 cells/well in a total volume of 135 μL and incubated at 37° C., 5% CO2, 95% humidity overnight. The following day, one-tenth volume of a 10× concentration of compounds was added to the wells in an 8-point dilution series. Compounds were serially diluted (1:4) in DMSO from a 10 mM stock solution prior to dilution in growth media to the 10× working concentrations (5% DMSO). Final concentration of DMSO in compound-treated wells was 0.5%. Control wells containing growth media or growth media/0.5% DMSO were included in all test plates. […] Once the compounds were added to the cells, plates were incubated for 3 days at 37° C., 5% CO2 at 95% humidity. After 72 hours, all cells and reagents were equilibrated to room temperature and 15 μL of CellTiter-Glo reagent (Promega # G7573) was added to each well. Plates were shaken on a platform for 10 minutes at room temperature prior to reading luminescence. The value of the signal of the control wells was set as 100% growth and growth inhibition was expressed as percent of control. IC50 values were determined from the percent of control data using a standard four-parameter curve fit equation.
The IC50 values of exemplary compounds of the present invention determined in a cell proliferation assay using the Karpas-299 cell line according to the procedures described herein in at least duplicate experiments are abbreviated as follows and are shown in Table 5: A, IC50≦0.05 μM; B, 0.05 μM<IC50≦0.2 μM; C, 0.2 μM<IC50≦1 μM; D, IC50>1 μM; ND, not determined. The Example # of Table 5 corresponds to the compound example number as illustrated in the Examples section.
The Karpas-299 cell line has a t(2; 5) chromosomal translocation and expresses the NPM-ALK fusion protein, resulting in constitutively active ALK. […] Ther. 6(12):3314-22 (2007)]. With this “ALK-driven” cell line, the cell proliferation IC50 values can thus be used as surrogate for the p-ALK cell mechanistic IC50 values.

The target of another experiment is T1, RON (Homo sapiens, UniProt Q04912).
T1 sequence (Q04912 913-1400): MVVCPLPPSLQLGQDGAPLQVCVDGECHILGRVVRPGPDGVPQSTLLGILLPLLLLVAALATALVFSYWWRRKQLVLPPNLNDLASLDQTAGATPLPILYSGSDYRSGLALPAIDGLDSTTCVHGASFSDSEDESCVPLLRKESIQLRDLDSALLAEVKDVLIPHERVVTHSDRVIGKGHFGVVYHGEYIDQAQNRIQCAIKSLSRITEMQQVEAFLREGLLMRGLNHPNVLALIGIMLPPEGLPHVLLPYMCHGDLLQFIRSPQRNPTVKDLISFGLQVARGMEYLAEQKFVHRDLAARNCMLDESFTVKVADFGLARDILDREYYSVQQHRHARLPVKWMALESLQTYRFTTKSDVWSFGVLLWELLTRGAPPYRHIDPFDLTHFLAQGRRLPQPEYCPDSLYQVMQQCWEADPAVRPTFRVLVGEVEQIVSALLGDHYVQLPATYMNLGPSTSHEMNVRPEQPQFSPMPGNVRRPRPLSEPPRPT
Description: sfRON cell mechanistic assay (HeLa), phosphorylated RON ELISA. The note with it: HeLa cells transfected with sfRON; inhibition of phosphorylated RON; four hours incubation; at least duplicate experiments; read-out: sfRON mech IC50. The procedure:
The cellular activity of the compounds of the present invention against RON may be determined by the following procedure. HeLa cells were plated in Falcon 3072 96-well plates in growth media (DMEM, 10% FBS, 1% L-glutamine) at a density of 10000 cells/well and incubated at 37° C., 5% CO2 overnight. The following day, cells were transfected with 0.2 μg sfRON-pcDNA plasmid DNA with 0.5 μL Lipofectamine-2000 per well in the presence of 50 μL OPTI-MEM, incubated at 37° C., 5% CO2 overnight. Costar 3915 96-well assay plates were coated with rabbit Anti-RON antibody at 2.0 μg/mL, sealed, and incubated overnight at 4° C. On the third day, coated plates were washed with PBS and blocked with 3% BSA. For the sfRON transfected cells, one-tenth volume of a 10× concentration of compounds was added to the wells in a 6-point dilution series. The dilution series was composed of an initial 1:5 dilution of a 10 mM DMSO stock solution of compound in DMSO, followed by a 1:10 dilution in growth media, for a final DMSO concentration on cells of 0.5%. Control wells were treated with 0.5% DMSO. The typical range of dilution was 10 μM to 3 nM. Once compound was added to the cells, plates were incubated for four hours at 37° C., 5% CO2. Plates were then washed in PBS, and lysed in triton-based lysis buffer. Lysates were transferred to the blocked capture plates. The phosphorylated RON levels were measured by incubating with a Goat polyclonal antibody against phosphorylated RON ([pYpY1238/1239]) followed by an anti-Goat antibody conjugated to HRP. Signal was measured on a Wallac Victor plate reader with luminance. The DMSO signal of the control wells was defined as 100% and the percent of inhibition of phosphorylated RON was expressed as percent of control. IC50 values were determined from the percent of control data using a standard four-parameter model.
The IC50 values of exemplary compounds of the present invention determined in a sfRON cell mechanistic assay using the HeLa cell line according to the procedures described herein in at least duplicate experiments are abbreviated as follows and are shown in Table 3: A, IC50≦0.2 μM; B, 0.2 μM<IC50≦1.0 μM; C, IC50>1 μM; ND, not determined. The Example # of Table 3 corresponds to the compound example number as illustrated in the Examples section.

Structures are written as SMILES. Some results are limits rather than exact numbers.

Take `COc1ccc(F)c(Cl)c1[C@@H](C)c1c[nH]c2ncc(-c3cnn([C@H]4CC[C@@H](N5CCN(C(C)=O)CC5)CC4)c3C)cc12` [Example 57, 1-{4-[cis-4-(4-{3-[(1S)-1-(2-Chloro-3-fluoro-6-methoxyphenyl)ethyl]-1H-pyrrolo[2,3-b]pyridin-5-yl}-5-methyl-1H-pyrazol-1-yl)cyclohexyl]piperazin-1-yl}ethanone]: the values for the half-maximal inhibitory concentration (IC50) with MKN45 cells, with Karpas-299 cells and on RON were no more than 50 nM, 50 to 200 nM and greater than 1000 nM, respectively.
Regarding `COc1ccc(F)c(Cl)c1[C@@H](C)c1c[nH]c2ncc(-c3cnn([C@H]4CC[C@H](N)CC4)c3C)cc12` [Example 58, trans-4-(4-{3-[(1S)-1-(2-Chloro-3-fluoro-6-methoxyphenyl)ethyl]-1H-pyrrolo[2,3-b]pyridin-5-yl}-5-methyl-1H-pyrazol-1-yl)cyclohexanamine], the IC50 is no more than 50 nM in the experiment on MKN45 cells, no more than 50 nM in the experiment with Karpas-299 cells and 200 to 1000 nM on RON.
In the case of `Cc1c(-c2cnc3[nH]cc([C@H](C)c4c(OC(F)F)ccc(F)c4Cl)c3c2)cnn1[C@H]1CC[C@@H](O)CC1` [Example 86, cis-4-[4-(3-{(1S)-1-[2-Chloro-6-(difluoromethoxy)-3-fluorophenyl]ethyl}-1H-pyrrolo[2,3-b]pyridin-5-yl)-5-methyl-1H-pyrazol-1-yl]cyclohexanol], the results for the IC50 in the experiment with MKN45 cells, in the experiment with Karpas-299 cells and at RON were no more than 50 nM, no more than 50 nM and 200 to 1000 nM, respectively.
`Cc1c(-c2cnc3[nH]cc([C@H](C)c4c(OC(F)F)ccc(F)c4Cl)c3c2)cnn1C[C@@H](O)CO` [Example 87, (2R)-3-[4-(3-{(1S)-1-[2-Chloro-6-(difluoromethoxy)-3-fluorophenyl]ethyl}-1H-pyrrolo[2,3-b]pyridin-5-yl)-5-methyl-1H-pyrazol-1-yl]propane-1,2-diol]: the IC50 in the experiment with MKN45 cells is no more than 50 nM; in the experiment on Karpas-299 cells, no more than 50 nM; at RON, no more than 200 nM.
Regarding `Cc1c(-c2cnc3[nH]cc([C@H](C)c4c(OC(F)F)ccc(F)c4Cl)c3c2)cnn1C1CCC(=O)CC1` [Example 88, 4-[4-(3-{(1S)-1-[2-Chloro-6-(difluoromethoxy)-3-fluorophenyl]ethyl}-1H-pyrrolo[2,3-b]pyridin-5-yl)-5-methyl-1H-pyrazol-1-yl]cyclohexanone], the 50% inhibitory concentration (IC50) in the experiment with MKN45 cells is no more than 50 nM; in the experiment on Karpas-299 cells, no more than 50 nM; at RON, 200 to 1000 nM.
In the case of `Cc1c(-c2cnc3[nH]cc([C@H](C)c4c(OC(F)F)ccc(F)c4Cl)c3c2)cnn1[C@H]1CC[C@H](N(C)CC(=O)O)CC1` [Example 89, N-{trans-4-[4-(3-{(1S)-1-[2-Chloro-6-(difluoromethoxy)-3-fluorophenyl]ethyl}-1H-pyrrolo[2,3-b]pyridin-5-yl)-5-methyl-1H-pyrazol-1-yl]cyclohexyl}-N-methylglycine], the IC50 in the experiment with MKN45 cells was no more than 50 nM; in the experiment with Karpas-299 cells, 50 to 200 nM; on RON, greater than 1000 nM.
Turning to `Cc1c(-c2cnc3[nH]cc([C@H](C)c4c(OC(F)F)ccc(F)c4Cl)c3c2)cnn1[C@H]1CC[C@@H](N(C)CC(=O)O)CC1` [Example 90, N-{cis-4-[4-(3-{(1S)-1-[2-Chloro-6-(difluoromethoxy)-3-fluorophenyl]ethyl}-1H-pyrrolo[2,3-b]pyridin-5-yl)-5-methyl-1H-pyrazol-1-yl]cyclohexyl}-N-methylglycine], the IC50 with MKN45 cells was 50 to 200 nM; in the experiment on Karpas-299 cells it was 50 to 200 nM; at RON it was greater than 1000 nM.
For the compound `Cc1c(-c2cnc3[nH]cc([C@H](C)c4c(OC(F)F)ccc(F)c4Cl)c3c2)cnn1[C@H]1CC[C@H](N2CCC[C@H]2C(=O)O)CC1` [Example 91, 1-{trans-4-[4-(3-{(1S)-1-[2-Chloro-6-(difluoromethoxy)-3-fluorophenyl]ethyl}-1H-pyrrolo[2,3-b]pyridin-5-yl)-5-methyl-1H-pyrazol-1-yl]cyclohexyl}-L-proline], the 50% inhibitory concentration (IC50) with MKN45 cells is 50 to 200 nM; in the experiment with Karpas-299 cells it was 50 to 200 nM; at RON it was greater than 1000 nM.
In the case of `Cc1c(-c2cnc3[nH]cc([C@H](C)c4c(OC(F)F)ccc(F)c4Cl)c3c2)cnn1[C@H]1CC[C@@H](N2CCC[C@H]2C(=O)O)CC1` [Example 92, 1-{cis-4-[4-(3-{(1S)-1-[2-Chloro-6-(difluoromethoxy)-3-fluorophenyl]ethyl}-1H-pyrrolo[2,3-b]pyridin-5-yl)-5-methyl-1H-pyrazol-1-yl]cyclohexyl}-L-proline], the IC50 is 200 to 1000 nM in the experiment with MKN45 cells, 200 to 1000 nM in the experiment on Karpas-299 cells and greater than 1000 nM on RON.
